Laboratory results taken from EP3210469A1, “USE OF SUBSTITUTED THIO-1,2,4-TRIAZOLES FOR INCREASING STRESS TOLERANCE IN PLANTS” (Bayer CropScience AG, priority 2016, dated 2017).

Assays:
Zea mays = test: Drought stress greenhouse test, in vivo Part A (spray application, visual rating vs stressed control plants); design: key: 0: kein Effekt; +: leicht positiver Effekt; ++: deutlich positiver Effekt; +++: stark positiver Effekt; conditions: Trockenstress, 600 l/ha water, mean rating of 3 pots
Description: (§1) Samen von mono- bzw. dikotylen Kulturpflanzen wurden in Plastiktöpfen in sandigem Lehmboden ausgesät, mit Erde oder Sand abgedeckt und im Gewächshaus unter guten Wachstumsbedingungen angezogen. Die Behandlung der Versuchspflanzen erfolgte im frühen Laubblattstadium (BBCH10 - BBCH13). Zur Gewährleistung einer uniformen Wasserversorgung vor Stressbeginn wurden die bepflanzten Töpfe vor Substanzapplikation durch Anstaubewässerung mit Wasser versorgt.
(§2) Die in Form von benetzbaren Pulvern (WP) formulierten erfindungsgemässen Verbindungen wurden als wässrige Suspension mit einer Wasseraufwandmenge von umgerechnet 600 I/ha unter Zusatz von 0,2% Netzmittel (z.B. Agrotin) auf die grünen Pflanzenteile gesprüht. Unmittelbar nach Substanzapplikation erfolgte die Stressbehandlung der Pflanzen.
(§3) Der Trockenstress wurde durch langsames Abtrocknen unter folgenden Bedingungen induziert: • "Tag": 14 Stunden beleuchtet bei ~ 26-30°C • "Nacht": 10 Stunden ohne Beleuchtung bei ~ 18-20°C.
(§4) Die Dauer der jeweiligen Stressphasen richtete sich hauptsächlich nach dem Zustand der gestressten Kontrollpflanzen. Sie wurde (durch Wiederbewässerung und Transfer in ein Gewächshaus mit guten Wachstumsbedingungen) beendet, sobald irreversible Schäden an den gestressten Kontrollpflanzen zu beobachten waren.
(§5) Nach Beendigung der Stressphase folgte eine ca. 4-7 tägige Erholungsphase, während der die Pflanzen abermals unter guten Wachstumsbedingungen im Gewächshaus gehalten wurden. Die Dauer der Erholungsphase richtete sich hauptsächlich danach, wann die Versuchspflanzen einen Zustand erreicht hatten, der eine visuelle Bonitur potenzieller Effekte ermöglichte, und war daher variabel.
(§6) Wenn dieser Zeitpunkt erreicht war, wurde das Erscheinungsbild der mit Testsubstanzen behandelten Pflanzen im Vergleich zu den gestressten Kontrollpflanzen nach folgenden Kategorien erfasst:
(§7) Um auszuschliessen, dass die beobachteten Effekte von der ggf. fungiziden oder insektiziden Wirkung der Testverbindungen beeinflusst wurden, wurde zudem darauf geachtet, dass die Versuche ohne Pilzinfektion oder Insektenbefall abliefen.
(§8) In jedem Versuch wurden pro Kultur und Dosierung Pflanzen in 3 Töpfen behandelt und separat ausgewertet. Die in den unten stehenden Tabellen A-1 bis A-3 angegebenen Werte für die erhaltenen Effekte stellen Mittelwerte aus den erhaltenen Bonituren dar.
(§9) Wirkungen ausgewählter Verbindungen der allgemeinen Formel (I) unter Trockenstress: Tabelle A-1

Brassica napus = test: as above; design: key: 0: kein Effekt; +: leicht positiver Effekt; ++: deutlich positiver Effekt; +++: stark positiver Effekt; conditions: Trockenstress, Dosierung 250 g/ha, 600 l/ha water, mean rating of 3 pots
Description: as §1, §2, §3, §4, §5, §6, §7, §8, §9

Triticum aestivum = test: as above; design: key: 0: kein Effekt; +: leicht positiver Effekt; ++: deutlich positiver Effekt; +++: stark positiver Effekt; conditions: Trockenstress, 600 l/ha water, mean rating of 3 pots
Description: as §1, §2, §3, §4, §5, §6, §7, §8, §9

[1] = biological target: T1, Phosphatase ABI1 über den Co-Regulator RCAR11/PYR1 (Arabidopsis thaliana, UniProt O49686+P49597); test: In vitro ABI1 phosphatase inhibition assay via co-regulator RCAR11/PYR1 (MUP dephosphorylation, fluorescence); assay type: biochemical; conditions: Konzentration 5mM of the substance in DMSO and water; 20 min at 35 °C; MUP substrate, emission 460 nm
T1 sequence (O49686 1-191): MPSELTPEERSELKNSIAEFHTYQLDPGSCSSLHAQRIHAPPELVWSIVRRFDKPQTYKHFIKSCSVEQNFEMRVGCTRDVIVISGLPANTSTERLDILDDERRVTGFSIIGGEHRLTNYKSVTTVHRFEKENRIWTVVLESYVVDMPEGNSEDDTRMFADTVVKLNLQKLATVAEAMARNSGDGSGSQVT
T1 sequence (P49597 1-434): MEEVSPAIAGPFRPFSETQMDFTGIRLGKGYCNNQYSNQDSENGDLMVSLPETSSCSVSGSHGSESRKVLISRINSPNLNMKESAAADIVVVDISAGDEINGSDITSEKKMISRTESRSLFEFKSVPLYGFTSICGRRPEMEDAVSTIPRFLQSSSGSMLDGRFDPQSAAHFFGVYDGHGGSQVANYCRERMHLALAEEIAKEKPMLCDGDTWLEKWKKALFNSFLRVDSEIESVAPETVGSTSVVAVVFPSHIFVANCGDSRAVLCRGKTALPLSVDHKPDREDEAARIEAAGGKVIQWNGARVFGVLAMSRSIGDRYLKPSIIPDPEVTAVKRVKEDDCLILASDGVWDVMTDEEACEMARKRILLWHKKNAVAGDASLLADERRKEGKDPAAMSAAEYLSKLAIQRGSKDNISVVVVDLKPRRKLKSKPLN
Description: Effekte des Phytohormons Abscisinsäure (ABA) auf das Verhalten von Pflanzen unter abiotischem Stress und der Wirkmechanismus von ABA sind in der Literatur beschrieben (vgl. Abrams et al, WO97/23441, Park et al. Science, 2009, 324, 1068; Grill et al. Science, 2009, 324, 1064; Tanokura et al. Biophysics, 2011, 7, 123; Schroeder et al. Plant J. 2010, 61, 290). Daher kann man mit Hilfe eines geeigneten in vitro-Testsystems eine Korrelation zwischen der Wirkung von ABA und der Stressantwort einer Pflanze unter abiotischem Stress ableiten. Unter Wassermangel (Trockenstress) bilden Pflanzen das Phytohormon Abscisinsäure (ABA). Dieses bindet mit einem Co-Regulator (Regulatory Component of ABA-Receptor = RCAR nach Grill et al. Science, 2009, 324, 1064 oder PYR/PYL nach Cutler et al. Science, 2009, 324, 1068) an eine Phosphatase (z.B. ABI1, eine Typ 2C Proteinphosphatase, auch als PP2C abgekürzt) und hemmt diese in ihrer Aktivität. In der Folge wird eine "downstream" Kinase (z.B. SnRK2) nicht mehr dephosphoryliert. Diese somit aktive Kinase schaltet über Phosphorylierung von Transkriptionsfaktoren (z.B. AREB/ABF, vgl. Yoshida et al Plant J. 2010, 61, 672) ein genetisches Schutzprogramm zur Erhöhung der Trockenstresstoleranz an.
In dem im Folgenden beschriebenen Assay wird die Hemmung der Phosphatase ABI1 über den Co-Regulator RCAR11/PYR1 aus Arabidopsis thaliana genutzt. […]

**Q.** How did the “Effekt (ZEAMX)” value (Zea mays; Dosierung 250 g/ha) turn out when `CCn1c(SCc2ccc(C#N)cc2)nnc1-c1ccc(Cl)cc1` [B6-63, 3-(4-Chlorphenyl)-4-ethyl-5-[(4-cyanobenzyl)-sulfanyl]-4H-1,2,4-triazol] was run?
**A.** +++

**Q.** And the “Effekt (BRSNS)” value (Brassica napus)?
**A.** +++

**Q.** For `Fc1ccc(CSc2nnc(-c3ccc(Cl)cc3)n2C2CC2)cc1` [D6-13, 3-(4-Chlorphenyl)-4-cyclopropyl-5-[(4-fluorbenzyl)-sulfanyl]-4H-1,2,4-triazol], which “Effekt (ZEAMX)” value (Zea mays; Dosierung 25 g/ha) is on record?
**A.** +++

**Q.** And the “Effekt (TRZAS)” value (Triticum aestivum; Dosierung 25 g/ha)?
**A.** ++

**Q.** Which results are given for `O=C(CSc1nnc(-c2ccc(Cl)cc2)n1C1CC1)Nc1ccccc1Cl` [D6-726]?
**A.** Effekt (ZEAMX) (Zea mays; Dosierung 250 g/ha): +++; Effekt (TRZAS) (Triticum aestivum; Dosierung 250 g/ha): ++

**Q.** `CC(C=CC1(O)C(C)=CC(=O)CC1(C)C)=CC(=O)O` (stereo not shown) [Abscisinsäure] was tested. Which “ABI1 Inhibition” value [1] did it give?
**A.** ++++ (Inhibition ≥ 90 %)
